Measurements published in PubChem BioAssay (NCI).
Several values for one entry are separate records, joined by “and”; a condition that tells them apart may be missing. Equal entries are not always repeated.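 A five-concentration, 48-hour dose response in 96-well plates underlies each endpoint, interpolated linearly between surrounding concentrations. GI50 = concentration required for 50% inhibition of growth. The concentration for full growth arrest is given as TGI.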

Tests used:
Assay in all cases: inhibition of tumour cell growth, NCI panel, 48 h
HOP-92 NSCLC = system: HOP-92 NSCLC
MCF7 breast = system: MCF7 breast
NCI-H460 lung = system: NCI-H460 lung
SK-MEL-5 melanoma = system: SK-MEL-5 melanoma
OVCAR-4 ovarian = system: OVCAR-4 ovarian
COLO 205 colon = system: COLO 205 colon
786-0 renal = system: 786-0 renal
SK-MEL-2 melanoma = system: SK-MEL-2 melanoma
SF-295 CNS = system: SF-295 CNS
RXF 393 renal = system: RXF 393 renal

| Structure (SMILES) | GI50 (HOP-92 NSCLC) [µM] | TGI (HOP-92 NSCLC) | GI50 (MCF7 breast) | TGI (MCF7 breast) [µM] | GI50 (NCI-H460 lung) | TGI (NCI-H460 lung) [µM] | GI50 (SK-MEL-5 melanoma) | TGI (SK-MEL-5 melanoma) | GI50 (OVCAR-4 ovarian) [µM] | TGI (OVCAR-4 ovarian) [µM] | GI50 (COLO 205 colon) [µM] | TGI (COLO 205 colon) | GI50 (786-0 renal) [µM] | TGI (786-0 renal) [µM] | GI50 (SK-MEL-2 melanoma) [µM] | TGI (SK-MEL-2 melanoma) | GI50 (SF-295 CNS) [µM] | TGI (SF-295 CNS) | GI50 (RXF 393 renal) [µM] | TGI (RXF 393 renal) |
| --- | --- | --- | --- | --- | --- | --- | --- | --- | --- | --- | --- | --- | --- | --- | --- | --- | --- | --- | --- | --- |
| CN1CCN(Cc2ccc(NC(=O)c3cncc(C#Cc4cnc(N)c5cccnc45)c3)cc2C(F)(F)F)CC1 | 0.148 | 1.16 µM | 0.69 µM | > 50 | 0.272 µM | > 50 | 0.571 µM | 2.13 µM | 0.149 | > 50 | 0.0956 | 1.12 µM | 1.26 | > 50 | 0.12 | 0.332 µM | 2.07 | > 50 µM | 0.255 | 2.51 µM |
| NS(=O)(=O)c1cc(C(=O)O)c(O)c2ccccc12 | – | > 100 µM | – | > 100 | – | > 100 | – | > 100 µM | – | > 100 | – | > 100 µM | – | > 100 | – | > 100 µM | – | > 100 µM | – | > 100 µM |
| Cn1cc(-c2cnn3c(N)c(Br)c(C4CCCNC4)nc23)cn1 (stereo unspecified) | 5.51 | > 68.5 µM | 13.7 µM | > 68.6 | 6.54 µM | 30.7 | 3.64 µM | 18.7 µM | 14.6 | 96.1 | 4.54 | 19.8 µM | 1.62 | 60.6 | 17.1 | 63.7 µM | 0.527 | > 44.4 µM | 0.257 | 0.799 µM |
| COC(=O)c1cc2c3ccccc3n3c2c(n1)-c1[nH]c2ccccc2c(=O)c1C3 | 11.4 | 29.3 µM | 15.6 µM | > 100 | > 100 µM | > 100 | > 100 µM | > 100 µM | > 100 | > 100 | > 100 | > 100 µM | 16.8 | 60.3 | 36.4 | > 100 µM | 32 | > 100 µM | 16.3 | 66.9 µM |
| COc1ccc([C@@]23Oc4cc(OC)cc(OC)c4[C@]2(O)[C@H](O)[C@H](C(N)=O)[C@H]3c2ccccc2)cc1 | < 0.0153 | 0.317 µM and 0.0541 µM | – | 0.112 | – | 0.19 | – | 0.0329 µM and < 0.0139 µM | 0.0142 | – | – | 0.0286 µM and 0.0116 µM | 0.018 | 0.291 | < 0.0147 | 0.0556 µM and 0.0738 µM | – | 0.0456 µM and < 0.01 µM | < 0.0115 | 0.0472 µM and 0.0136 µM |
| CC[C@@H](C)/C=C(C)/C=C/C(=O)c1c(O)c(-c2ccc(O)cc2)cn(O)c1=O | 0.137 | 1.86 µM | 0.365 µM | 16.5 | 0.292 µM | 1.11 | 0.201 µM | 0.562 µM | 0.261 | 12.5 | 7.19 | 20.6 µM | 0.361 | 5.17 | 0.329 | 16.8 µM | 0.703 | 9.99 µM | 0.22 | 2.25 µM |
| CCCCCC/C=C\CCCCCCCCCC1=C(CN2CCN(C)CC2)C(=O)C=C(OC)C1=O | – | 6.26 µM | – | 11.6 | – | 23.2 | – | 19.3 µM | – | 3.8 | – | 3.37 µM | – | 2.9 | – | 18.7 µM | – | 25.3 µM | – | 6.72 µM |
| CCCCCCCC/C=C/CCCCCCCC1=NC(C)(C)CN1CCO | 1.43 | 7.45 µM | 1.7 µM | 3.19 | 1.85 µM | 3.42 | 2.87 µM | 8.4 µM | 2.8 | 8.59 | 1.66 | 3.11 µM | 1.73 | 3.14 | 1.86 | 3.49 µM | 1.73 | 3.36 µM | 2.02 | 4.37 µM |
| C#CCN(c1ccc(C(=O)N[C@@H](CCC(=O)N[C@H](CCC(=O)O)C(=O)O)C(=O)O)cc1)C1CCc2cc3nc(CO)[nH]c(=O)c3cc21 (stereo partly specified) | > 53.4 | > 100 µM | 0.899 µM | > 100 | 5.11 µM | > 100 | 10 µM | > 100 µM | > 100 | > 100 | 13.8 | > 100 µM | 4.96 | > 100 | > 100 | > 100 µM | 5.01 | > 72.3 µM | 63.8 | > 100 µM |
| Cc1cc(Nc2nc(N[C@@H](C)c3ncc(F)cn3)ncc2Cl)n[nH]1 | 10.1 | 42.4 µM | 8.71 µM | > 100 | 22.2 µM | > 100 | 26 µM | > 100 µM | 23.2 | > 100 | 17.8 | 48.9 µM | 23.6 | > 100 | 28.7 | 92.1 µM | 35.6 | > 100 µM | 5.07 | 19.9 µM |
| C=CCC(N[C@@H](CO)c1ccccc1)c1cn(C(=O)OCC)c2ccccc12 (stereo partly specified) | 16.5 | 39.8 µM | 29.4 µM | > 100 | 26.2 µM | 70.1 | 14.2 µM | 28.9 µM | 81.5 | > 100 | 20.1 | 44.1 µM | 18 | 36.7 | 33.7 | > 100 µM | 20.8 | 53.9 µM | 22.8 | 84.2 µM |
| Nc1nc(/C=C\c2ccccc2)nc(N2CCN(c3ccccc3)CC2)n1 | 21 | 93.3 µM | 26.5 µM | 84.1 | 24.5 µM | > 100 | 21.1 µM | 45 µM | 37.2 | > 100 | 16.4 | 35.8 µM | 16.2 | 34.8 | 32.5 | 91.7 µM | 30 | > 100 µM | 21.6 | 49.2 µM |
| C/C(=C(\c1ccc(OCCN2CCCCCC2)cc1)c1ccc(OC(=O)c2ccccc2)cc1)c1ccc(Cl)cc1 | 3.57 | 7.8 µM | 0.348 µM | 5.94 | 2.5 µM | 7.44 | 4.55 µM | 8.84 µM | 3.6 | 9.82 | 2.31 | 7.76 µM | 3.58 | 7.73 | 5.32 | 10.5 µM | 2.71 | 7.44 µM | 3.71 | 8.18 µM |
| CCc1nc2ccc(N=Nc3c(O)ccc4ccccc34)cc2[nH]1 | – | 42.7 µM | – | 42.2 | – | 36.8 | – | 40 µM | – | 28.4 | – | 39 µM | – | 37.7 | – | 37.9 µM | – | 43.5 µM | – | 25.6 µM |
| C=CCC(N[C@H](CO)c1ccccc1)c1cn(Cc2ccccc2Cl)c(=O)n(Cc2ccccc2Cl)c1=O (stereo partly specified) | 3.92 | 23.1 µM | 16.4 µM | 68.7 | 18.3 µM | > 100 | 14.6 µM | 30.1 µM | 26.6 | > 100 | 14.7 | 86.8 µM | 12.7 | 64.1 | 18.9 | 57.5 µM | 8.13 | 48 µM | 8.48 | 23.6 µM |
| COc1cc(C2c3cc4c(cc3C(OC(=O)C[n+]3ccccc3)C3COC(=O)C23)OCO4)cc(OC)c1OC (stereo unspecified) | < 0.013 | 2.74 µM | < 0.014 µM | > 100 | < 0.0187 µM | > 100 | < 0.01 µM | < 0.01 µM | < 0.0239 | > 100 | < 0.0137 | < 0.0203 µM | < 0.0183 | > 100 | < 0.01 | > 100 µM | < 0.0164 | > 100 µM | < 0.0191 | > 100 µM |
| COc1cc(C(=O)c2cnc(-c3cccc4[nH]ccc34)[nH]2)cc(OC)c1OC | 1.5 | 48.1 µM | 0.059 µM and < 0.01 µM | > 100 | 0.0434 µM and < 0.01 µM | > 100 | 0.0462 µM and < 0.01 µM | 0.431 µM and 0.275 µM | < 0.01 | > 100 | – | < 0.01 µM | – | > 100 | < 0.01 | 36.1 µM | < 0.01 | > 100 µM | 0.113 | – |
| Clc1ccccc1-c1nnc2c(Cc3ccccc3)nc3ccccc3n12 | 3.45 | 41.8 µM | 34 µM | > 100 | 3.18 µM | > 100 | 3.67 µM | > 100 µM | 5.55 | > 100 | > 29.6 | > 100 µM | 12.5 | 98.3 | 59.4 | > 100 µM | 8.12 | > 100 µM | 3.29 | > 100 µM |
| CCN(CC)CCCC(C)N/C(=C1\C(=O)NC(=O)\C1=C(/NC(C)CCCN(CC)CC)c1cccc(OC)c1)c1cccc(OC)c1 (stereo unspecified) | 0.642 | 1.76 µM | 1.03 µM | 3.56 | 0.58 µM | 2.05 | 0.836 µM | 1.54 µM | 0.742 | 2.2 | 0.728 | 1.65 µM | 0.833 | 2.64 | 0.947 | 1.8 µM | 0.813 | 1.78 µM | 0.72 | 1.58 µM |
